One test has as its target PI3K-alpha (Homo sapiens, UniProt P42336). Description: PI3K-alpha fluorescence polarization assay. The class given is biochemical. Conditions: 20 μM PIP2, 25 μM ATP; read-out: PI3Kα IC50. The essentials:
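PIP2 (diC8) and ATP substrate with PI3K in 20 mM HEPES pH 7.5, 2 mM MgCl2, 0.05% CHAPS, 0.01% βME; 1% DMSO final; 30–60 min reaction. Stopped with EDTA plus GST-GRP (70 nM) and TAMRA probe (10 nM); FP (mP) read after 30–90 min, with no-enzyme controls.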

Another test relates to LNCap. Description: In vitro cell growth assay (MTS), LNCap. It is filed as cell-based. Conditions: LNCaP, 72 h, human prostate line, three days after drug treatment.
The subject of another test is MDA468. Description: In vitro cell growth assay (MTS), MDA468. It is filed as cell-based. Conditions: 72 h, human breast line MDA468, three days after drug treatment, read-out: MDA IC50.
In the next test the target is mTOR (Homo sapiens, UniProt P42345). Nature of the test: mTOR enzyme assay (DELFIA, purified FLAG-TOR, His6-S6K substrate). The class given is biochemical. More on the design: FLAG. Conditions: 100 μM ATP, 2 hours.
mTOR, sequence (P42345 1360-2549 limits assumed): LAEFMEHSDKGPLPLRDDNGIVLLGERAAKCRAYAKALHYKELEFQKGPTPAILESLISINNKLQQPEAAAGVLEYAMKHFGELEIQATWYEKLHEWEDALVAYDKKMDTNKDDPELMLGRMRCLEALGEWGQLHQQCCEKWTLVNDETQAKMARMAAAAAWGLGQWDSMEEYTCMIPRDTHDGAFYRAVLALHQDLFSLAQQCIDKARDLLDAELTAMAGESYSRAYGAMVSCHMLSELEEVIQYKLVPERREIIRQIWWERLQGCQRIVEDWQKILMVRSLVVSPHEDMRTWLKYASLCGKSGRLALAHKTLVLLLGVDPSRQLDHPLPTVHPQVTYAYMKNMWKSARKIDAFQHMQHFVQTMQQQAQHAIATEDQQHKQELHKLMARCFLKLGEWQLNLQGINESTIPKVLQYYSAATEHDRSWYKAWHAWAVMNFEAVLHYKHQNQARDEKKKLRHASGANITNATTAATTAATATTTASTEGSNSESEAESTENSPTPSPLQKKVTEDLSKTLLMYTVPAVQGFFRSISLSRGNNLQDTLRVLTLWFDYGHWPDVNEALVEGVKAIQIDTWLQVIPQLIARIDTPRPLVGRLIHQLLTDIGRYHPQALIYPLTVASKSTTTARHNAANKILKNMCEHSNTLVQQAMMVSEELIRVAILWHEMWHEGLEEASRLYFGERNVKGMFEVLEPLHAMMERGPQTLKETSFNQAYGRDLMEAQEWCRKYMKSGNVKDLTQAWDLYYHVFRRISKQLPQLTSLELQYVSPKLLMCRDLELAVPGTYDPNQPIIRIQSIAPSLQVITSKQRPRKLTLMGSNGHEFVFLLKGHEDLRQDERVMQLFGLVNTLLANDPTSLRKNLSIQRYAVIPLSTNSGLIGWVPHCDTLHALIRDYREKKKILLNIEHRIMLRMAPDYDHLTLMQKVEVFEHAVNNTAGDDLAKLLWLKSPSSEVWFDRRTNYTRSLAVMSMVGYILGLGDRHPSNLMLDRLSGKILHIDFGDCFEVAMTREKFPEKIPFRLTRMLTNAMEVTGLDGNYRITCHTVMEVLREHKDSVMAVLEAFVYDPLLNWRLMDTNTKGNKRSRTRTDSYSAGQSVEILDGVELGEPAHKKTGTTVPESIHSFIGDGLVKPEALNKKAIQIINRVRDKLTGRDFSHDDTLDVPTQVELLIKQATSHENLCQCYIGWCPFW

PI3K-alpha, sequence (P42336 whole entry, species assumed): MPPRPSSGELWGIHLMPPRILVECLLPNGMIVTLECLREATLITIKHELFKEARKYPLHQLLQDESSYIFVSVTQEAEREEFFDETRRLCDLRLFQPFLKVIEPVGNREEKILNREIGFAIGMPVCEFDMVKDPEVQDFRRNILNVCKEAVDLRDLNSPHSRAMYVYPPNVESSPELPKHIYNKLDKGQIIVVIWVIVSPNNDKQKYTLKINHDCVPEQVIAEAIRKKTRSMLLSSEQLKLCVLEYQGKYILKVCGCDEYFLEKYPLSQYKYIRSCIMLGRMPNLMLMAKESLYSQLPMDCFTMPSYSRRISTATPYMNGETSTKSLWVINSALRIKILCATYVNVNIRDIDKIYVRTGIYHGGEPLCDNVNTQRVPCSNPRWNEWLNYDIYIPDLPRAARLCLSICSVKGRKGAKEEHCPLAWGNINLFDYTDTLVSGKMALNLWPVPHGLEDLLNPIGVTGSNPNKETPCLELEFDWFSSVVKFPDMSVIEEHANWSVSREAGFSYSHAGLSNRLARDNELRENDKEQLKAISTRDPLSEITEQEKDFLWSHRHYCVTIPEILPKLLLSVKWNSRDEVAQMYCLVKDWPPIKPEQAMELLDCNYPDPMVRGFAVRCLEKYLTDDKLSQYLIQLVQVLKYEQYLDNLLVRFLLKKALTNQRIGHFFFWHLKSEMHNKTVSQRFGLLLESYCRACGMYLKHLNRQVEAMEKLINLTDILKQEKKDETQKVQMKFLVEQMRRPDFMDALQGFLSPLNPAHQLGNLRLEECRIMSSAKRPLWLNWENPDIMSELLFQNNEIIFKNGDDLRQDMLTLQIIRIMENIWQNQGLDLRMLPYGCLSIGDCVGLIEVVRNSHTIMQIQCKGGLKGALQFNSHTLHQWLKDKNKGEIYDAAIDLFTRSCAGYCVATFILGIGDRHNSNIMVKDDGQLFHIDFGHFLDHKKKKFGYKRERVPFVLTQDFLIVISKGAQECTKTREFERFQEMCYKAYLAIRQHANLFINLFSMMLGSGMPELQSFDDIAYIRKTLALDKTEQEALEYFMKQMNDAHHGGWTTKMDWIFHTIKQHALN
PI3K-alpha, sequence (P27986 whole entry partner, species assumed): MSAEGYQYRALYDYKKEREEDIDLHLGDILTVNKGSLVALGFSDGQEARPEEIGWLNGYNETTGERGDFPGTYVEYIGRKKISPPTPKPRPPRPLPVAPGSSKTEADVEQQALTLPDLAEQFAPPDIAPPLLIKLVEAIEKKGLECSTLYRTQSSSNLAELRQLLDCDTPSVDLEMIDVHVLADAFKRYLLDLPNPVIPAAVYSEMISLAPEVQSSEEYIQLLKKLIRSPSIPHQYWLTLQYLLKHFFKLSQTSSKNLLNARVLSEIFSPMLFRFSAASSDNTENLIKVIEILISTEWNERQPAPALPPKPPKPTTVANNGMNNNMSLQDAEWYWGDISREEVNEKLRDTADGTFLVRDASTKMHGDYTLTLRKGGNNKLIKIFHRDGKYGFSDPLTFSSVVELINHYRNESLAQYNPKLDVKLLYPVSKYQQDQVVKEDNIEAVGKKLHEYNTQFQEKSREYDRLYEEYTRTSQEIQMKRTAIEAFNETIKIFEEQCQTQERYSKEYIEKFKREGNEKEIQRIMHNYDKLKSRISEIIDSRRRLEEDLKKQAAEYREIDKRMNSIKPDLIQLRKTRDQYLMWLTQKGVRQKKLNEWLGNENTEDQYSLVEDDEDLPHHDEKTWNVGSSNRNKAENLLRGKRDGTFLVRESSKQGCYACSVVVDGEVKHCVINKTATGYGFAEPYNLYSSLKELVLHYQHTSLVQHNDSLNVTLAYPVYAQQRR

Take `CNCc1ccc(NC(=O)Nc2ccc(-c3nc(CS(C)(=O)=O)cc(N4CC5CCC(C4)O5)n3)cc2)cc1` [1-{4-[(methylamino)methyl]phenyl}-3-(4-{4-[(methylsulfonyl)methyl]-6-(8-oxa-3-azabicyclo[3.2.1]oct-3-yl)pyrimidin-2-yl}phenyl)urea]: the IC50 on PI3K-alpha amounted to 63.5 nM; in the test with LNCap, 1100 nM; in the test with MDA468, 1560 nM; against mTOR, 4.15 nM.
The corresponding values for `CN(C)CCOc1ccc(NC(=O)Nc2ccc(-c3nc(-c4ccccc4)cc(N4CC5CCC(C4)O5)n3)cc2)cc1` [1-{4-[2-(dimethylamino)ethoxy]phenyl}-3-{4-[4-(8-oxa-3-azabicyclo[3.2.1]oct-3-yl)-6-phenylpyrimidin-2-yl]phenyl}urea] are 141 nM, 120 nM, 300 nM and 19 nM.
In the case of `O=C(Nc1ccncc1)Nc1ccc(-c2cc(N3CC4CCC(C3)O4)nc(N3CC4CCC(C3)O4)n2)cc1` [1-[4-(2,6-di-8-oxa-3-azabicyclo[3.2.1]oct-3-ylpyrimidin-4-yl)phenyl]-3-pyridin-4-ylurea], the IC50 turned out to be 137 nM on PI3K-alpha, 130 nM in the test with LNCap, 380 nM in the test on MDA468 and 2.45 nM against mTOR.
The corresponding values for `CS(=O)(=O)Cc1cc(N2CC3CCC(C2)O3)nc(-c2ccc(NC(=O)NC3CC3)cc2)n1` [1-cyclopropyl-3-(4-{4-[(methylsulfonyl)methyl]-6-(8-oxa-3-azabicyclo[3.2.1]oct-3-yl)pyrimidin-2-yl}phenyl)urea] are 4640 nM, 1000 nM, 2500 nM and 5.7 nM.
In the case of `CNC(=O)Nc1ccc(-c2nc(CS(C)(=O)=O)cc(N3CC4CCC(C3)O4)n2)cc1` [1-methyl-3-(4-{4-[(methylsulfonyl)methyl]-6-(8-oxa-3-azabicyclo[3.2.1]oct-3-yl)pyrimidin-2-yl}phenyl)urea], the half-maximal inhibitory concentration (IC50) was 1730 nM on PI3K-alpha, 2050 nM with LNCap, 3300 nM with MDA468 and 13.5 nM against mTOR.
The corresponding values for `CNC(=O)Nc1ccc(-c2nc(NC(C)C)cc(N3CC4CCC(C3)O4)n2)cc1` [1-methyl-3-(4-{4-[(1-methylethyl)amino]-6-(8-oxa-3-azabicyclo[3.2.1]oct-3-yl)pyrimidin-2-yl}phenyl)urea] are 810 nM, 500 nM, 2100 nM and 12 nM.
The corresponding values for `CCNC(=O)Nc1ccc(-c2nc(CS(C)(=O)=O)cc(N3CC4CCC(C3)O4)n2)cc1` [1-ethyl-3-(4-{4-[(methylsulfonyl)methyl]-6-(8-oxa-3-azabicyclo[3.2.1]oct-3-yl)pyrimidin-2-yl}phenyl)urea] are 1810 nM, 1000 nM, 1900 nM and 5.75 nM.
`CN1CCN(c2ccc(NC(=O)Nc3ccc(-c4nc(N5CC6CCC(C5)O6)cc(N5CC6CCC(C5)O6)n4)cc3)cc2)CC1` [1-[4-(4,6-di-8-oxa-3-azabicyclo[3.2.1]oct-3-ylpyrimidin-2-yl)phenyl]-3-[4-(4-methylpiperazin-1-yl)phenyl]urea]: the 50% inhibitory concentration (IC50) stood at 328 nM at PI3K-alpha, 2.4 nM in the test with LNCap, 19 nM with MDA468 and 2.55 nM against mTOR.
The corresponding values for `O=C(Nc1ccncc1)Nc1ccc(-c2nc(N3CC4CCC(C3)O4)cc(N3CC4CCC(C3)O4)n2)cc1` [1-[4-(4,6-di-8-oxa-3-azabicyclo[3.2.1]oct-3-ylpyrimidin-2-yl)phenyl]-3-pyridin-4-ylurea] are 125 nM, 28 nM, 50 nM and 0.56 nM.
With `CN1CCN(c2ccc(NC(=O)Nc3ccc(-c4nc(CS(C)(=O)=O)cc(N5CC6CCC(C5)O6)n4)cc3)cc2)CC1` [1-[4-(4-methylpiperazin-1-yl)phenyl]-3-(4-{4-[(methylsulfonyl)methyl]-6-(8-oxa-3-azabicyclo[3.2.1]oct-3-yl)pyrimidin-2-yl}phenyl)urea], the IC50 on PI3K-alpha stood at 343 nM; with LNCap it was 15 nM; in the test with MDA468, 30 nM; against mTOR, 2.95 nM.
With `O=C(Nc1ccncc1)Nc1ccc(-c2nccc(N3CC4CCC(C3)O4)n2)cc1` [1-{4-[4-(8-oxa-3-azabicyclo[3.2.1]oct-3-yl)pyrimidin-2-yl]phenyl}-3-pyridin-4-ylurea], the IC50 on PI3K-alpha is 224 nM; in the test with LNCap it was 180 nM; in the test with MDA468 it was 650 nM; on mTOR, 14.5 nM.
The corresponding values for `O=C(Nc1ccc(-c2nc(N3CC4CCC(C3)O4)cc(C(F)(F)F)n2)cc1)OCCO` [2-hydroxyethyl {4-[4-(8-oxa-3-azabicyclo[3.2.1]oct-3-yl)-6-(trifluoromethyl)pyrimidin-2-yl]phenyl}carbamate] are 5160 nM, 950 nM, 4000 nM and 15.5 nM.
As for `CNC(=O)Nc1ccc(-c2cc(N3CC4CCC(C3)O4)nc(-c3ccc(NC(=O)NC)cc3)n2)cc1` [N′,N′″-{[6-(8-oxa-3-azabicyclo[3.2.1]oct-3-yl)pyrimidine-2,4-diyl]di-4,1-phenylene}bis(1-methylurea)], the half-maximal inhibitory concentration (IC50) worked out at 990 nM at PI3K-alpha, 1200 nM in the test on LNCap, 1100 nM with MDA468 and 2.8 nM on mTOR.
The corresponding values for `CC(C)Nc1cc(N2C3CCC2COC3)nc(-c2ccc(NC(=O)Nc3ccncc3)cc2)n1` [1-{4-[4-(isopropylamino)-6-(3-oxa-8-azabicyclo[3.2.1]oct-8-yl)pyrimidin-2-yl]phenyl}-3-pyridin-4-ylurea] are 2500 nM, 13 nM, 29 nM and 1.4 nM.
Take `O=C(Nc1ccncc1)Nc1ccc(-c2nc(N3C4CCC3COC4)cc(N3C4CCC3COC4)n2)cc1` [1-[4-(4,6-di-3-oxa-8-azabicyclo[3.2.1]oct-8-ylpyrimidin-2-yl)phenyl]-3-pyridin-4-ylurea]: the IC50 on PI3K-alpha amounted to 954 nM; with LNCap, 3 nM; in the test with MDA468, 19 nM; against mTOR it was 0.655 nM.
For the molecule `CNC(=O)Nc1ccc(-c2nccc(N3CC4CCC(C3)O4)n2)cc1` [1-methyl-3-{4-[4-(8-oxa-3-azabicyclo[3.2.1]oct-3-yl)pyrimidin-2-yl]phenyl}urea], the half-inhibitory concentration (IC50) on PI3K-alpha came to 1840 nM; with LNCap, 2500 nM; in the test on MDA468, 10500 nM; on mTOR, 132 nM.
The corresponding values for `CN1CCN(c2ccc(NC(=O)Nc3ccc(-c4nc(N5C6CCC5COC6)cc(N5C6CCC5COC6)n4)cc3)cc2)CC1` [1-[4-(4,6-di-3-oxa-8-azabicyclo[3.2.1]oct-8-ylpyrimidin-2-yl)phenyl]-3-[4-(4-methylpiperazin-1-yl)phenyl]urea] are 1140 nM, no more than 0.8 nM, 0.8 nM and 1.7 nM.
For `CC(C)Nc1cc(N2CC3CCC(C2)O3)nc(-c2ccc(NC(=O)Nc3ccc(N4CCN(C)CC4)cc3)cc2)n1` [1-(4-{4-[(1-methylethyl)amino]-6-(8-oxa-3-azabicyclo[3.2.1]oct-3-yl)pyrimidin-2-yl}phenyl)-3-[4-(4-methylpiperazin-1-yl)phenyl]urea], the IC50 came to 212 nM on PI3K-alpha, 13.4 nM with LNCap, 50 nM with MDA468 and 4.17 nM at mTOR.
As for `CC(C)Nc1nc(-c2ccc(NC(=O)Nc3cccnc3)cc2)nc(N2CC3CCC(C2)O3)c1NC(=O)CCN(C)C` [N~3~,N~3~-dimethyl-N-(4-[(1-methylethyl)amino]-6-(8-oxa-3-azabicyclo[3.2.1]oct-3-yl)-2-{4-[(pyridin-3-ylcarbamoyl)amino]phenyl}pyrimidin-5-yl)-beta-alaninamide], the IC50 was 5980 nM at PI3K-alpha, 30000 nM with LNCap, no less than 60000 nM with MDA468 and 13500 nM on mTOR.
The corresponding values for `CC(C)Nc1cc(N2CC3CCC(C2)O3)nc(-c2ccc(NC(=O)Nc3ccncc3)cc2)n1` [1-(4-{4-[(1-methylethyl)amino]-6-(8-oxa-3-azabicyclo[3.2.1]oct-3-yl)pyrimidin-2-yl}phenyl)-3-pyridin-4-ylurea] are 140 nM, 51 nM, 310 nM and 0.785 nM.
The corresponding values for `O=C(Nc1ccc(-c2cc(N3CC4CCC(C3)O4)nc(-c3ccc(NC(=O)NC4CC4)cc3)n2)cc1)NC1CC1` [N′,N′″-{[6-(8-oxa-3-azabicyclo[3.2.1]oct-3-yl)pyrimidine-2,4-diyl]di-4,1-phenylene}bis(1-cyclopropylurea)] are 2920 nM, 310 nM, 1500 nM and 4 nM.

The values are drawn from patent US8835429B2, “Pyrimidine compounds, their use as mTOR kinase and Pl3 kinase inhibitors, and their syntheses” (Wyeth LLC, priority 2009, dated 2014).
